For the assay, the target named is T1, HSV-1 ribonucleotide reductase (partially purified) (Human herpesvirus 1, UniProt P08543).
T1 construct: obtained from quiescent BHK-21/C13 cells infected with strain F HSV-1 virus; endogenous in cells; host or cells: quiescent BHK-21/C13 cells infected with HSV-1 strain F; enzyme partially purified (Cohen et al., J. Gen. Virol. 66, 733 (1985))
Kind of assay: biochemical. It counts as biochemical. The text has this: b) Assay and Results for Exemplified Peptides

SMILES strings stand for the structures. Where two headings read alike, the source gives them in different places. Where a SMILES comes first, the peptide text is derived from it. [ ]: non-standard residue; d: D form. The star is where a group is joined. Gly(1-COOH-cBu) = N[C@H](C(=O)O)C1(C(=O)O)CCC1; Hydrocinnamoyl = O=C(CCc1ccccc1)*; Pentanoyl(4-Me) = CC(C)CCC(=O)*; O(2S-octyl) = CCCCCC[C@H](C)O*; NHPhenethyl = c1ccc(CCN*)cc1; Tle = CC(C)(C)[C@H](N)C(=O)O; NMeV = CN[C@H](C(=O)O)C(C)C; Pyrrolidide = C1CCN(*)C1; NHIsopentyl = CC(C)CCN*; Boc = CC(C)(C)OC(=O)*; X6 = CC(C)C[C@H](C)N*; X2 = CCCCCCCCCCCCO*; X4 = CCCCCCCCN(C)*

T1 sequence (P08543 whole entry): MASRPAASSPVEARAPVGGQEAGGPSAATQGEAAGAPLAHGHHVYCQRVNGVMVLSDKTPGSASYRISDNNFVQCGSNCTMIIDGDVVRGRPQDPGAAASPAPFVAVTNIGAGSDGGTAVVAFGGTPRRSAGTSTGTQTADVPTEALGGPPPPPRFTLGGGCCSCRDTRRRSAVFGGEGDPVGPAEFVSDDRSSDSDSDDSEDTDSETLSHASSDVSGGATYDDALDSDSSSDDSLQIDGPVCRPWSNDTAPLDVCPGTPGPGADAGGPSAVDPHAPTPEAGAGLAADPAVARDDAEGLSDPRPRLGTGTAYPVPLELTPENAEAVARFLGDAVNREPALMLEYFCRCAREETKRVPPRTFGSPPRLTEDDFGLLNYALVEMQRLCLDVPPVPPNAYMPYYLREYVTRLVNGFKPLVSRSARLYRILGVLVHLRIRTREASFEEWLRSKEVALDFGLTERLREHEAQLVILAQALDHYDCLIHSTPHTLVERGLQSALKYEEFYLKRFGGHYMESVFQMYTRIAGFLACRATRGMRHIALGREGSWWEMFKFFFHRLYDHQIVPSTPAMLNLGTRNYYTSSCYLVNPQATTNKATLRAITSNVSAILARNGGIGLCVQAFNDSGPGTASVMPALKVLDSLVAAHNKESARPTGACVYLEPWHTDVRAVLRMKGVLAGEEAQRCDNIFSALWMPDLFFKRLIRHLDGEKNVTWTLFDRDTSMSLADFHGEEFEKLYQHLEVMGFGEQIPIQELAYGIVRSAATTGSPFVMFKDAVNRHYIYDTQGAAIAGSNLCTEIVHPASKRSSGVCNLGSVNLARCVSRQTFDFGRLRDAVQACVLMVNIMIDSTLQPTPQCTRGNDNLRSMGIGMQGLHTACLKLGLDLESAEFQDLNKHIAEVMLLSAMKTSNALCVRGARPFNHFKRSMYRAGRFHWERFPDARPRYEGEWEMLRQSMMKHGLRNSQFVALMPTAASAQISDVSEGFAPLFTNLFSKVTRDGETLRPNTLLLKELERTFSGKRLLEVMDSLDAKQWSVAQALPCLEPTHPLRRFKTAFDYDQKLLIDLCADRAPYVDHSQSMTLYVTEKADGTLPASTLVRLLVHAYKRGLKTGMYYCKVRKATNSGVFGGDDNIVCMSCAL

The term IC50 denotes the concentration that inhibits the measured activity by half. `CC[C@H](C)[C@H](NC(=O)[C@H](C(C)C)N(C)C(=O)CCc1ccccc1)C(=O)N[C@@H](CC(=O)N1CCCC1)C(=O)N[C@@H](CC(=O)O)C(=O)NCCC(C)C` [Entry 38, PhCH2 CH2 CO--N--Me--Val--Ile--Asp(pyrrolidino)-Asp--NHCH2 CH2 CH(CH3)2] (Hydrocinnamoyl-[NMeV]ID(Pyrrolidide)D-NHIsopentyl) came in with an IC50 of 1300 nM.

In turn, `CCCCCCCCCCCCOC(=O)C[C@H](NC(=O)[C@@H](NC(=O)[C@H](C(C)C)N(C)C(=O)CCc1ccccc1)[C@@H](C)CC)C(=O)N[C@@H](CC(=O)O)C(=O)N[C@@H](CC(C)C)C(=O)O` [Entry 29, PhCH2 CH2 CO--N--Me--Val--Ile--Asp(dodecyloxy)-Asp--Leu--OH] (Hydrocinnamoyl-[NMeV]ID(X2)DL-OH) registered a half-inhibitory concentration (IC50) of 4200 nM.

Regarding `CC(C)C[C@H](NC(=O)[C@@H](NC(=O)[C@H](CC(=O)N1CCCC1)NC(=O)[C@@H](NC(=O)[C@H](C(C)C)N(C)C(=O)CCc1ccccc1)C(C)(C)C)C1(C(=O)O)CCC1)C(=O)O` [Entry 33, PhCH2 CH2 CO--N--Me--Val--Tbg--Asp(pyrrolidino)-Asp(cyBu)-Leu--OH] (Hydrocinnamoyl-[NMeV][Tle]D(Pyrrolidide)[Gly(1-COOH-cBu)]L-OH), the concentration for half-maximal inhibition (IC50) amounted to 60 nM.

`CCCCCC[C@H](C)OC(=O)C[C@H](NC(=O)[C@@H](NC(=O)[C@H](C(C)C)N(C)C(=O)CCc1ccccc1)[C@@H](C)CC)C(=O)N[C@@H](CC(=O)O)C(=O)N[C@@H](CC(C)C)C(=O)OC` [Entry 37, PhCH2 CH2 CO--N--Me--Val--Ile--Asp 1(S)-methylheptyloxy!-Asp--Leu--OCH3] (Hydrocinnamoyl-[NMeV]ID(O(2S-octyl))DL-OMe) came in with a 50% inhibitory concentration (IC50) of 2000 nM.

On to `CCCCCC[C@H](C)OC(=O)C[C@H](NC(=O)[C@@H](NC(=O)[C@H](C(C)C)N(C)C(=O)CCc1ccccc1)[C@@H](C)CC)C(=O)N[C@@H](CC(=O)O)C(=O)N[C@@H](CC(C)C)C(N)=O` [Entry 31, PhCH2 CH2 CO--N--Me--Val--Ile--Asp 1(S)-methylheptyloxy!-Asp--Leu--NH2] (Hydrocinnamoyl-[NMeV]ID(O(2S-octyl))DL-NH2), for which the concentration for half-maximal inhibition (IC50) amounted to 1900 nM.

Consider `CC[C@H](C)[C@H](NC(=O)[C@H](C(C)C)N(C)C(=O)OC(C)(C)C)C(=O)N[C@@H](CC(=O)NCCc1ccccc1)C(=O)N[C@@H](CC(=O)O)C(=O)N[C@@H](CC(C)C)C(=O)O` [Entry 24, Boc--N--Me--Val--Ile--Asp(NHCH2 CH2 Ph)--Asp--Leu--OH] (Boc-[NMeV]ID(NHPhenethyl)DL-OH), for which the IC50 (Table 4, concentration producing 50% of the maximal inhibition of enzyme activity, mean of four assays, read-out: IC50) was determined as 1600 nM.

The compound `CC[C@H](C)[C@H](NC(=O)[C@H](C(C)C)N(C)C(=O)CCc1ccccc1)C(=O)N[C@@H](CC(=O)N1CCCC1)C(=O)N[C@@H](CC(=O)O)C(=O)N[C@@H](C)CC(C)C` [Entry 41, PhCH2 CH2 CO--N--Me--Val--Ile--Asp(pyrrolidino)-Asp--NHCH(CH3)CH2 CH(CH3)2] (Hydrocinnamoyl-[NMeV]ID(Pyrrolidide)D-X6) had an IC50 of 2600 nM.

With `CCCCCC[C@H](C)OC(=O)C[C@H](NC(=O)[C@@H](NC(=O)[C@H](C(C)C)N(C)C(=O)CCC(C)C)[C@@H](C)CC)C(=O)N[C@@H](CC(=O)O)C(=O)N[C@@H](CC(C)C)C(=O)O` [Entry 30, 4-Methylpentanoyl-N--Me--Val--Ile--Asp 1(S)-methylheptyloxy!-Asp--Leu--OH] ({Pentanoyl(4-Me)}-[NMeV]ID(O(2S-octyl))DL-OH), the IC50 was 1700 nM.

The compound `CCCCCCCCN(C)C(=O)C[C@H](NC(=O)[C@@H](NC(=O)[C@H](C(C)C)N(C)C(=O)CCc1ccccc1)[C@@H](C)CC)C(=O)N[C@@H](CC(=O)O)C(=O)N[C@@H](CC(C)C)C(=O)O` [Entry 32, PhCH2 CH2 CO--N--Me--Val--Ile--Asp NMe(octyl)!-Asp--Leu--OH] (Hydrocinnamoyl-[NMeV]ID(X4)DL-OH) gave an IC50 of 260 nM.

Compound `CC[C@H](C)[C@H](NC(=O)[C@H](C(C)C)N(C)C(=O)CCc1ccccc1)C(=O)N[C@@H](CC(=O)N1CCCC1)C(=O)N[C@@H](CC(=O)O)C(=S)N[C@@H](CC(C)C)C(=O)O` [Entry 40, PhCH2 CH2 CO--N--Me--Val--Ile--Asp(pyrrolidino)-.PSI. CSNH!Asp--Leu--OH] yielded an IC50 of 160 nM.

Values taken from US5502036A, “Antiherpes pentapeptide derivatives having a substituted aspartic acid side chain” (priority 1989, dated 1996).
